For eight compounds, EC50 results are on record in ChEMBL document CHEMBL1150583, “New isoflavone and triterpene glycosides from soybeans” (2002).

Common to all, as to type: functional
The subject of one test is DU-145. The experiment in a line: Cytotoxicity against human DU145 cells after 6 days by MTT assay. Particulars: DU-145, 144 h, read-out: ED50 (the source's name).
A short description of test [1]: Cytotoxicity against human Hs 578T cells after 6 days by MTT assay. Particulars: 144 h, read-out: ED50 (the source's name).
The nature of test [2]: Cytotoxicity against human Hs 746T cells after 6 days by MTT assay. Conditions: Hs746T, 144 h, read-out: ED50 (the source's name).
Test [3] in a line: Cytotoxicity against human Hs 742.T cells after 6 days by MTT assay. Conditions: 144 h, read-out: ED50 (the source's name).
Test [4] in a line: Cytotoxicity against human LNCaP-FGC cells after 6 days by MTT assay. Particulars: LNCaP-Clone-FGC, 144 h, read-out: ED50 (the source's name).
Test [5] can be described thus: Cytotoxicity against human Hs 740.T cells after 6 days by MTT assay. Conditions: 144 h, read-out: ED50 (the source's name).

Values after ≈ are worked out from the molar mass of the structure shown.

With `C[C@@H]1O[C@@H](O[C@H]2[C@H](O[C@H]3[C@H](O[C@H]4CC[C@@]5(C)[C@@H](CC[C@]6(C)[C@@H]5CC=C5[C@@H]7CC(C)(C)C[C@@H](O[C@@H]8O[C@H](CO)[C@@H](O)[C@H](O)[C@H]8O[C@@H]8O[C@@H](C)[C@H](O)[C@@H](O)[C@H]8O)[C@]7(C)CC[C@]56C)[C@]4(C)CO)O[C@H](C(=O)O)[C@@H](O)[C@@H]3O)O[C@H](CO)[C@H](O)[C@@H]2O)[C@H](O)[C@H](O)[C@H]1O`, the EC50 with DU-145 turned out to be 3.25 µg/mL (≈ 2.6 µM); in test [1] it was 2.12 µg/mL (≈ 1.69 µM); in test [2], 3.94 µg/mL (≈ 3.15 µM); in test [3] it was 14.6 µg/mL (≈ 11.7 µM); in test [4] it was 24.1 µg/mL (≈ 19.3 µM); in test [5] it was 4.1 µg/mL (≈ 3.28 µM).

Take `COc1ccc(-c2coc3cc(O[C@@H]4O[C@H](COC(C)=O)[C@@H](O)[C@H](O)[C@H]4OC(C)=O)ccc3c2=O)cc1`: the EC50 with DU-145 was found to be 4.18 µg/mL (≈ 8.12 µM); in test [1], 5.44 µg/mL (≈ 10.6 µM); in test [2], 8.89 µg/mL (≈ 17.3 µM); in test [3] it was 25.5 µg/mL (≈ 49.6 µM); in test [4] it was 22.1 µg/mL (≈ 43 µM); in test [5] it was 7.61 µg/mL (≈ 14.8 µM).

In the case of `C[C@@H]1O[C@@H](O[C@H]2[C@H](O[C@@H]3CC(C)(C)C[C@H]4C5=CC[C@@H]6[C@@]7(C)CC[C@H](O[C@@H]8O[C@H](C(=O)O)[C@@H](O)[C@H](O)[C@H]8O[C@@H]8O[C@H](CO)[C@H](O)[C@H](O)[C@H]8O[C@@H]8O[C@@H](C)[C@H](O)[C@@H](O)[C@H]8O)[C@@](C)(CO)[C@@H]7CC[C@@]6(C)[C@]5(C)CC[C@@]34C)OC[C@H](O)[C@@H]2O)[C@H](O)[C@H](O)[C@H]1O`, the EC50 came to 3.12 µg/mL (≈ 2.55 µM) with DU-145; 2.39 µg/mL (≈ 1.96 µM) in test [1]; 2.47 µg/mL (≈ 2.02 µM) in test [2]; 17.5 µg/mL (≈ 14.3 µM) in test [3]; 27.5 µg/mL (≈ 22.5 µM) in test [4]; 3.53 µg/mL (≈ 2.89 µM) in test [5].

On to `CC1(C)C[C@@H](O)[C@]2(C)CC[C@]3(C)C(=CC[C@@H]4[C@@]5(C)CC[C@H](O[C@@H]6O[C@H](C(=O)O)[C@@H](O)[C@H](O)[C@H]6O)[C@@](C)(CO)[C@@H]5CC[C@]43C)[C@@H]2C1` [3-O-[BETA-D-GLUCURONOPYRANOSYL]SOYASAPOGENOL B], for which the EC50 is 9.13 µg/mL (≈ 14.4 µM) in the test with DU-145; 8.77 µg/mL (≈ 13.8 µM) in test [1]; 9.59 µg/mL (≈ 15.1 µM) in test [2]; 28.7 µg/mL (≈ 45.2 µM) in test [3]; 37.3 µg/mL (≈ 58.7 µM) in test [4]; 9.61 µg/mL (≈ 15.1 µM) in test [5].

`CC1(C)C[C@@H](O)[C@]2(C)CC[C@]3(C)C(=CC[C@@H]4[C@@]5(C)CC[C@H](O[C@@H]6O[C@H](C(=O)O)[C@@H](O)[C@H](O)[C@H]6O[C@@H]6O[C@H](CO)[C@H](O)[C@H](O)[C@H]6O[C@@H]6O[C@H](CO)[C@@H](O)[C@H](O)[C@H]6O)[C@@](C)(CO)[C@@H]5CC[C@]43C)[C@@H]2C1` [3-O-[BETA-DGLUCOPYRANOSYL-(1->2)-BETA-D-GALACTOPYRANOSYL(1->2)-BETA-DGLUCURONOPYRANOSYL]SOYASAPOGENOL B]: the EC50 amounted to 5.75 µg/mL (≈ 5.99 µM) in the test on DU-145; 9.87 µg/mL (≈ 10.3 µM) in test [1]; 7.36 µg/mL (≈ 7.67 µM) in test [2]; 31.6 µg/mL (≈ 32.9 µM) in test [3]; 40.7 µg/mL (≈ 42.4 µM) in test [4]; 8.97 µg/mL (≈ 9.35 µM) in test [5].

Turning to `O=C1c2ccc(O[C@@H]3O[C@H](CO)[C@@H](O)[C@H](O)[C@H]3O)cc2OCC1c1ccc(O)cc1` (stereo partly drawn) [DIHYDRODAIDZIN], the EC50 was found to be 9.16 µg/mL (≈ 21.9 µM) in the test with DU-145; 28.2 µg/mL (≈ 67.5 µM) in test [1]; 14.9 µg/mL (≈ 35.7 µM) in test [2]; 33.6 µg/mL (≈ 80.2 µM) in test [3]; 32.5 µg/mL (≈ 77.6 µM) in test [4]; 17.4 µg/mL (≈ 41.5 µM) in test [5].

In the case of `O=C1c2c(O)cc(O[C@@H]3O[C@H](CO)[C@@H](O)[C@H](O)[C@H]3O)cc2OCC1c1ccc(O)cc1` (stereo partly drawn) [DIHYDROGENISTIN], the EC50 with DU-145 was 10.2 µg/mL (≈ 23.6 µM); in test [1], 15.4 µg/mL (≈ 35.4 µM); in test [2], 12.2 µg/mL (≈ 28.2 µM); in test [3], 30.8 µg/mL (≈ 70.9 µM); in test [4] it was 41.6 µg/mL (≈ 95.7 µM); in test [5], 15.1 µg/mL (≈ 34.8 µM).

Take `O=c1c(-c2ccc(O)cc2)coc2cc(O)cc(O)c12` [GENISTEIN]: the EC50 worked out at 2.39 µg/mL (≈ 8.84 µM) with DU-145; 3.5 µg/mL (≈ 13 µM) in test [1]; 5.82 µg/mL (≈ 21.5 µM) in test [2]; 14.9 µg/mL (≈ 55.1 µM) in test [3]; 25.4 µg/mL (≈ 94.2 µM) in test [4]; 4.38 µg/mL (≈ 16.2 µM) in test [5].
